Data on 2 compounds can be found in publication PMC10572855, “Phenotypic Test of Benzo[4,5]imidazo[1,2-c]pyrimidinone-Based Nucleoside and Non-Nucleoside Derivatives against DNA and RNA Viruses, Including Coronaviruses” (International Journal of Molecular Sciences, 2023).

One data set relates to HCoV 229E. The data set is described as follows: Cytopathic effect reduction, HCoV 229E. The class given is cell-based, Human coronavirus 229E. The conditions noted are these: Human coronavirus 229E; reduction of virus-induced cytopathic effect by 50%; virus input 100 TCID50; read-out: Antiviral Activity (EC50) HCoV 229E. Background: Damage to the host cells serves as the signal in cytopathic effect assays.

For a further data set, the system named is HCoV OC43. The data set can be described thus: Cytopathic effect reduction, HCoV OC43. The class given is cell-based, Human coronavirus OC43. The conditions noted are these: Betacoronavirus 1, OC43; reduction of virus-induced cytopathic effect by 50%; virus input 100 TCID50; read-out: Antiviral Activity (EC50) HCoV OC43.
For the next data set, the system named is HCoV NL63. The data set is described as follows: Cytopathic effect reduction, HCoV NL63. Format: cell-based, Human coronavirus NL63. Particulars: Human coronavirus NL63; reduction of virus-induced cytopathic effect by 50%; virus input 100 TCID50; read-out: Antiviral Activity (EC50) HCoV NL63.
The next data set relates to RSV (Long). The data set can be described thus: Cytopathic effect reduction, RSV (Long). The conditions noted are these: human respiratory syncytial virus; reduction of virus-induced cytopathic effect by 50%; virus input 100 TCID50; read-out: Antiviral Activity (EC50) RSV Long. Format: cell-based, Respiratory syncytial virus.
The nature of data set [1]: Cytotoxicity in HEL299 cells, MTS assay. Format: cell-based, Human. The conditions noted are these: human, HEL299 cells, cell growth reduced by 50%. A general note: Formazan colour is commonly taken as a measure of viable cells.
Experimental: (§1) Cells were seeded at a rate of 5 × 10^3 cells/well into 96-well plates and allowed to proliferate for 24 h. Then, a medium containing different concentrations of the test compounds, starting at 100 mM, was added. After 3 days of incubation at 37 °C, the cell count was determined with a Beckman Coulter counter or, alternatively, cell viability was determined with the colorimetric formazan-based MTS assay. […] The cytotoxic effects of the compounds were also assessed by evaluating the MCC (minimum cytotoxic concentration that causes a microscopically detectable alteration of cell morphology).
Data set [2] is described as follows: Cytotoxicity in Huh7 cells, MTS assay. The class given is cell-based, Human. The conditions noted are these: human, Huh7 cells, cell growth reduced by 50%.
Experimental: as §1
The test system of a further data set is TK+ VZV strain OKA. The data set can be described thus: microbe, parasite or virus in culture. The class given is cell-based, Varicella zoster virus. Particulars: Human alphaherpesvirus 3, HEL 299, read-out: Antiviral Activity (EC50) TK+ VZV Strain OKA.
The subject of data set [3] is SARS-CoV-2 UC-1074 (Wuhan). The data set can be described thus: Cytopathic effect reduction, SARS-CoV-2 UC-1074 (Wuhan) in Vero cells. The class given is cell-based. The conditions noted are these: Severe acute respiratory syndrome coronavirus 2, UC1074, CPE reduced by 50%, 100 TCID50, read-out: Antiviral Activity (EC50) UC-1074 (Wuhan).
Data set [4] has as its system SARS-CoV-2 NVDBB-2220 (UK). The data set is described as follows: Cytopathic effect reduction, SARS-CoV-2 NVDBB-2220 (UK) in Vero cells. The class given is cell-based. The conditions noted are these: Severe acute respiratory syndrome coronavirus 2, CPE reduced by 50%, 100 TCID50, read-out: Antiviral Activity (EC50) NVDBB-2220 (UK).
Data set [5] deals with SARS-CoV-2 860-J1 (Delta). The data set can be described thus: Cytopathic effect reduction, SARS-CoV-2 860-J1 (Delta) in Vero cells. Format: cell-based. Particulars: Severe acute respiratory syndrome coronavirus 2, CPE reduced by 50%, 100 TCID50, read-out: Antiviral Activity (EC50) 860-J1 (Delta).
Data set [6] deals with SARS-CoV-2 B1.1 529 BA.1 (Omicron). The data set can be described thus: Cytopathic effect reduction, SARS-CoV-2 B1.1 529 BA.1 (Omicron) in Vero cells. The class given is cell-based. Particulars: Severe acute respiratory syndrome coronavirus 2, CPE reduced by 50%, read-out: Antiviral Activity (EC50) B1.1 529 BA.1 (Omicron).
Data set [7] concerns the target SARS-CoV-2 RdRp (nsp12, nsp7-nsp8) (Severe acute respiratory syndrome coronavirus 2, UniProt P0DTD1). The data set can be described thus: In vitro transcription assay with SARS-CoV-2 RdRp. The class given is biochemical. Particulars: RdRp 1 µM, RNA substrate 25 nM, 100 µM NTPs, 30 °C; read-out: IC50, inhibition of RdRp activity (RNA primer extension).
The target in data set [8] is T1, SARS-CoV-2 N-protein and stem-loop vgRNA fragment condensates (Severe acute respiratory syndrome coronavirus 2, UniProt P0DTC9).
T1 construct: His-tag; made in house
The data set can be described thus: Cell-free LLPS assay, N-protein:vgRNA condensates. The class given is biochemical.

A further data set concerns SARS-CoV-2 (all strains). The data set can be described thus: Cytopathic effect reduction, various SARS-CoV-2 strains in Vero cells. The class given is cell-based. Particulars: Severe acute respiratory syndrome coronavirus 2, read-out: EC50 against all SARS-CoV-2 strains.
For a further data set, the system named is HEL299 cells. The conditions noted are these: minimum cytotoxic concentration, microscopically detectable alteration of cell morphology.
The next data set is described as follows: in vitro. The conditions noted are these: green monkey.
Data set [9] concerns TK- VZV strain 07-1. The data set can be described thus: microbe, parasite or virus in culture. Particulars: Human alphaherpesvirus 3, HEL 299, read-out: Antiviral Activity (EC50) TK− VZV Strain 07-1.
A short description of data set [10]: Cell growth inhibition in HEL299 cells, Coulter Counter. The class given is cell-based. Particulars: human, 3 days of cell growth, read-out: Cytotoxicity Cell Growth (CC50).
Experimental: as §1
A further data set relates to Vero cells. The conditions noted are these: minimum cytotoxic concentration, microscopically detectable alteration of cell morphology.
Data set [11] concerns TK- VZV strain 07-1. The data set can be described thus: in vitro. Particulars: human.
The mark [12] stands for this setting: 20 µM compound, 3 µM N-protein, 6 µM RNA.

The structures appear in SMILES notation.

In the case of `COc1ccc(C(OC[C@H]2O[C@@H](n3ccc4nc5cc(O)ccc5n4c3=O)C[C@@H]2O)(c2ccccc2)c2ccc(OC)cc2)cc1` [Compound 3a, 2-((2R,4S,5R)-5-((bis(4-methoxyphenyl)(phenyl)methoxy)methyl)-4-hydroxytetrahydrofuran-2-yl)-7-hydroxybenzo[4,5]imidazo[1,2-c]pyrimidin-1(2H)-one], the EC50 in the data set with HCoV 229E was 8.5 ± 0.36 µM; in the data set on HCoV OC43 it was < 800 nM; with HCoV NL63, > 100 µM; in the data set with RSV (Long) it was 670 ± 230 nM; in the data set with TK+ VZV strain OKA, > 4 µM; in [3], 8.82 ± 0.21 µM. In addition, the EC50 in data set [4] is 8.92 ± 6.38 µM; in [5] it was 11.3 ± 3.5 µM; in data set [6] it was 10.6 ± 0.7 µM; in data set [8] (dose-dependent effect, 3 µM N-protein, 6 µM RNA, read-out: EC50 of inhibition of condensate formation (LLPS)), ≤ 10 µM; with SARS-CoV-2 (all strains) it was ~10 µM; in the data set on TK- VZV strain 07-1 [9], > 4 µM. For the same compound, the CC50 at 3 days is > 100 µM in data set [1] and < 800 nM in data set [2]. For the same compound, the 50% inhibitory concentration (IC50) (in general, the concentration that gives 50% inhibition) in data set [7] came out at 94 ± 3 µM. For the same compound, in data set [8] (20 µM compound), the “effect on LLPS / condensates (summary in words)” value is reported as “robust LLPS inhibitor”. Also, in data set [8] (setting [12]), the “decrease of the average number of droplets” value was “approximately 60%”. Also, in data set [8] (setting [12]), the “decrease of the partitioning coefficient (droplet/solution N-protein concentration ratio)” value is given as 60–70%. Also, the median droplet diameter in data set [8] (setting [12]) is given as 1.1 µm. In the data set with HEL299 cells, the “Cytotoxicity Cell Morphology (MCC)” value was determined as 20 μM. For the same compound, in the data set “in vitro”, the CC50 was > 100 µM.

`COc1ccc(C(OC[C@H]2O[C@@H](n3ccc4nc5cc(OC)ccc5n4c3=O)C[C@@H]2O)(c2ccccc2)c2ccc(OC)cc2)cc1` [Compound 7a, 2-((2R,4S,5R)-5-((bis(4-methoxyphenyl)(phenyl)methoxy)methyl)-4-hydroxytetrahydrofuran-2-yl)-7-methoxybenzo[4,5]imidazo[1,2-c]pyrimidin-1(2H)-one]: the EC50 in the data set with TK+ VZV strain OKA is 8.15 ± 3.59 µM; in data set [3] it was > 20 µM; in [6], > 100 µM; with TK- VZV strain 07-1 [9], 3.28 ± 2.23 µM. For the same compound, in data set [10], the CC50 at 3 days is > 100 µM. Further, in data set [8] (20 µM compound), the “effect on LLPS / condensates (summary in words)” value is listed as “caused no changes”. Also, the figures for the “Cytotoxicity Cell Morphology (MCC)” value in the data set with HEL299 cells and with Vero cells were 100 μM and >100 μM, respectively. Besides, the selectivity ratio in the data set with TK- VZV strain 07-1 [11] is > 30.
